Experimental data as given in patent US20070186358A1, “Concentrated optical brightener solutions” (priority 2004, published 2007).

How the values were obtained:
[1] = Storage stability of concentrated aqueous solution (precipitation at 5° C.); format: physicochemical; conditions: aqueous solution of sodium salt, 0.330 mol/kg, 2.0% sodium chloride, no solubilizing agent; 2 weeks at 5° C.
Protocol: (§1) A solution of 21.3 parts aniline-2,5-disulphonic acid and 6.7 parts sodium hydroxide in 30 parts water is added to a stirred suspension of 15.5 parts cyanuric chloride in 50 parts ice water. The pH is kept at 6 by the dropwise addition of 30% sodium hydroxide. The mixture is stirred below 10° C. until primary aromatic amine groups can no longer be detected by the diazo reaction. A solution of 14.8 parts 4,4′-diaminostilbene-2,2′-disulphonic acid and 3.2 parts sodium hydroxide in 20 parts water is then added, the pH is adjusted to between 6.5 and 7.5 by the addition of 30% sodium hydroxide and the mixture is stirred at 30° C. until a negative diazo reaction is obtained. A solution of 12.2 parts L-aspartic acid in 22.9 parts 16% sodium hydoxide is added, and the mixture is heated at reflux for 6 hours, the pH being kept at 7.5 to 8.5 by the addition of 30% sodium hydroxide. The aqueous solution so-formed of (2) in the form of its sodium salt, which is approximately 0.167 mol/kg in concentration, is desalinated by membrane filtration and concentrated to 0.330 mol/kg (50% by weight).
(§2) An aqueous solution of (3) in the form of its sodium salt at a concentration of 0.330 mol/kg (51% by weight) is prepared as described in Example 1 but using 13.5 parts L-glutamic acid in place of 12.2 parts L-aspartic acid.

[2] = Viscosity of concentrated aqueous solution; format: physicochemical; conditions: aqueous solution of sodium salt, 0.330 mol/kg, 2.0% sodium chloride; at 20° C.
Protocol: as §1, §2

Structure (SMILES)	precipitation on storage [1]	viscosity [2]
O=C(O)CC(Nc1nc(Nc2ccc(/C=C/c3ccc(Nc4nc(Nc5cc(S(=O)(=O)O)ccc5S(=O)(=O)O)nc(NC(CC(=O)O)C(=O)O)n4)cc3S(=O)(=O)O)c(S(=O)(=O)O)c2)nc(Nc2cc(S(=O)(=O)O)ccc2S(=O)(=O)O)n1)C(=O)O (stereo not shown) [Example 1]	no signs of precipitation	0.23-0.25 Pa.s
O=C(O)CCC(Nc1nc(Nc2ccc(/C=C/c3ccc(Nc4nc(Nc5cc(S(=O)(=O)O)ccc5S(=O)(=O)O)nc(NC(CCC(=O)O)C(=O)O)n4)cc3S(=O)(=O)O)c(S(=O)(=O)O)c2)nc(Nc2cc(S(=O)(=O)O)ccc2S(=O)(=O)O)n1)C(=O)O (stereo not shown) [Example 2]	no signs of precipitation	0.23-0.25 Pa.s
